Consider 14 compounds from patent publication EP3301096A1, “BIS-INDOLE DERIVATIVES FOR USE IN THE TREATMENT OF BACTERIAL INFECTIONS” (Heinrich Heine Universität Düsseldorf, priority 2016, dated 2018).

In assay [1] the test system is E. faecium ATCC 35667. The assay is described as follows: MIC by broth microdilution method (CLSI). To be noted: Enterococcus faecium, ATCC35667, 24 h. On the technique in general: Broth dilution looks for growth in wells or tubes with falling amounts of substance.
Method: (§2) The compounds were tested for their antibacterial activities against the pathogenic nosocomial strains of Staphylococcus aureus, Enterococcus faecalis Enterococcus faecium, Acinetobacter baumannii. The minimal inhibitory concentration (MIC) was determined by the broth microdilution method according to the recommendations of the Clinical and Laboratory Standards Institute (CLSI) (CLSI M7-A9, 2012). For preparation of the inoculum the growth method was used. Bacterial cells were grown aerobically in Muller Hinton (MH) medium at 37°C and 180 rpm. A preculture was grown until log phase (OD600 nm ∼ 0.5) and then seeded at 5 x 10^4 bacteria/well in a total volume of 100 µL in 96 well round bottom microtiter plates and incubated with serially diluted test substances at a concentration range of 100-0.78 µM. The compounds were screened in two-fold serial dilution. Microplates were incubated aerobically at 37°C for 24 h. MICs were determined by identifying the minimum concentration of the compounds that led to complete inhibition of visual growth of the bacteria.
Assay [2] relates to M. tuberculosis H37Rv. As to the kind of experiment: MIC determination, resazurin microplate assay. It is filed as cell-based. The settings on record: Mycobacterium tuberculosis, 120 h, five days, range 100-0.78 µM.
Assay [3] has as its system E. faecalis ATCC 29212. As to the kind of experiment: MIC by broth microdilution method (CLSI). The settings on record: Enterococcus faecalis, ATCC29212, 24 h.
Method: as §2
In assay [4] the test system is MRSA ATCC 700699. As to the kind of experiment: MIC by broth microdilution method (CLSI). The settings on record: Staphylococcus aureus, 24 h.
Method: as §2
In assay [5] the test system is E. faecalis ATCC 51299. As to the kind of experiment: MIC by broth microdilution method (CLSI). The settings on record: Enterococcus faecalis, ATCC51299, 24 h.
Method: as §2
For assay [6], the system named is S. aureus ATCC 25923. The assay is described as follows: MIC by broth microdilution method (CLSI). To be noted: Staphylococcus aureus, ATCC25923, 24 h.
Method: as §2
In assay [7] the test system is VR E. faecium ATCC 700221. The assay is described as follows: MIC by broth microdilution method (CLSI). The settings on record: Enterococcus faecium, ATCC700221, 24 h.
Method: as §2
Assay [8] has as its system nosocomial pathogens and Mycobacterium tuberculosis. As to the kind of experiment: MIC determination, statements across the tested strains. To be noted: for activity against the tested strains: tested concentration range 100-0.78 µM. It is filed as cell-based.
The test system of assay [9] is methicillin-sensitive Staphylococcus aureus. The assay is described as follows: MIC quantified via the BacTiter-Glo assay. The settings on record: methicillin-sensitive strain; 24 h. The format is cell-based. Here is the method:
(§1) The MICs of compounds according to formulas (2), (3), (4), (7), (11), (12) and (18) were additionally quantified via the BacTiter-Glo™ assay (Promega, Madison, WI, USA). Briefly, after an incubation time of 24 h, each well was resuspended by pipetting, and 50 µL aliquots were transferred into an opaque-walled multiwell plate. Additionally, control wells containing medium without cells to determine background luminescence were prepared. 50 µL BacTiter-Glo™ reagent were added to each well. Contents were mixed and incubated for five minutes at room temperature. Luminescence was measured using a microplate reader. Growth was calculated relative to the background luminescence (0% growth) and a compound-free DMSO control (100% growth).

The subject of assay [10] is methicillin-resistant Staphylococcus aureus. As to the kind of experiment: MIC quantified via the BacTiter-Glo assay. The format is cell-based. To be noted: methicillin-resistant strain; 24 h. The protocol:
as §1

The structures appear in SMILES notation. Some results are limits rather than exact numbers.

As a reminder, the MIC is the smallest concentration in the dilution series that meets the test's criterion for growth inhibition.

For the compound `c1ccc2c(-c3cnc(-c4c[nH]c5ccccc45)nc3)c[nH]c2c1` [formula (12), 3,3'-(pyrimidine-2,5-diyl)bis(1H-indole)], the MIC in assay [1] is 100 µM; in assay [2], 50 µM; in [3] it was 50 µM; in assay [4], 12.5 µM; in assay [5] it was 100 µM; in [6], 100 µM. Moreover, the MIC in assay [7] came to 100 µM.

As for `Fc1ccc2[nH]cc(-c3cnc(-c4c[nH]c5ccc(F)cc45)nc3)c2c1` [formula (11), 3,3'-(pyrimidine-2,5-diyl)bis(5-fluoro-1H-indole)], the MIC in [1] is 50 µM; in [2], greater than 100 µM; in [3], 100 µM; in assay [4] it was 12.5 µM; in assay [5], 100 µM; in [6], 100 µM. For the same compound, the MIC in [7] was 50 µM.

Regarding `c1ccc2c(-c3ccc(-c4c[nH]c5ccccc45)nn3)c[nH]c2c1` [formula (17), 3,6-Di(1H-indole-3-yl)pyridazine], the MIC was greater than 100 µM in [1]; greater than 100 µM in assay [2]; 100 µM in [3]; greater than 100 µM in assay [4]; 100 µM in assay [5]; greater than 100 µM in [6]. Moreover, the MIC in assay [7] is greater than 100 µM.

Regarding `c1cc(-c2c[nH]c3ccccc23)nc(-c2c[nH]c3ccccc23)c1` [formula (16), 2,6-di(1H-indole-3-yl)pyridine], the MIC was greater than 100 µM in assay [1]; greater than 100 µM in assay [2]; 100 µM in assay [3]; greater than 100 µM in assay [4]; 100 µM in assay [5]; greater than 100 µM in assay [6]. In assay [7], the MIC is greater than 100 µM.

Regarding `Brc1ccc2c(-c3cnc(-c4c[nH]c5cc(Br)ccc45)cn3)c[nH]c2c1` [formula (6), 2,5-bis(6-bromo-1H-indole-3-yl)pyrazine], the MIC in assay [1], in [2], in [3], in assay [4], in assay [5] and in assay [6] was greater than 100 µM each time. In [7], this compound yielded an MIC greater than 100 µM. Also, the “activity against the tested strains” value in assay [8] is “no activity could be observed”.

Regarding `c1ccc2c(-c3cc(-c4c[nH]c5ccccc45)ncn3)c[nH]c2c1` [formula (15), 4,6-di(1H-indole-3-yl)pyrimidine], the MIC in assay [1], in [2], in assay [3], in assay [4], in assay [5] and in assay [6] was greater than 100 µM in each case. Also, the MIC in assay [7] is greater than 100 µM.

For `COc1ccc2[nH]cc(-c3cnc(-c4c[nH]c5ccc(OC)cc45)cn3)c2c1` [formula (8), 2,5-bis(5-methoxy-1H-indole-3-yl)pyrazine], the MIC in [1], in [2], in assay [3], in assay [4], in assay [5] and in [6] was greater than 100 µM each time. In assay [7], the MIC is greater than 100 µM. Also, in [8], the “effect against M. tuberculosis, S. aureus and E.faecium” value (“effect against M. tuberculosis” below) is on record as “did not show any effect”.

Regarding `c1ccc2c(-c3csc(-c4c[nH]c5ccccc45)n3)c[nH]c2c1` [formula (18), 2,4-di(1H-indole-3-yl)thiazole], the minimum inhibitory concentration (MIC) in [1] was 6.25 µM; in assay [2] it was 100 µM; in assay [3], greater than 100 µM; in assay [4], 3.12 µM; in [5], greater than 100 µM; in assay [6], 6.25 µM. Moreover, the MIC in [7] was determined as 6.25 µM. Also, the “inhibition of Staphylococcus aureus (BacTiter-Glo)” value in assay [9] and in assay [10] was “effectively inhibited” throughout.

Regarding `COc1ccc2c(-c3cnc(-c4c[nH]c5cc(OC)ccc45)cn3)c[nH]c2c1` [formula (9), 2,5-bis(6-methoxy-1H-indole-3-yl)pyrazine], the MIC in assay [1], in assay [2], in assay [3], in assay [4], in assay [5] and in assay [6] was greater than 100 µM in each case. In addition, the MIC in assay [7] is greater than 100 µM. Further, the “effect against M. tuberculosis” value in assay [8] is recorded as “did not show any effect”.

For the compound `Brc1cc2[nH]cc(-c3cnc(-c4c[nH]c5cc(Br)c(Br)cc45)cn3)c2cc1Br` [formula (7), 2,5-bis(5,6-dibromo-1H-indole-3-yl)pyrazine], the MIC in assay [1] was 50 µM; in assay [2], greater than 100 µM; in assay [3], 100 µM; in [4] it was 25 µM; in [5] it was greater than 100 µM; in [6] it was 100 µM. Also, 50 µM was the least that counted as inhibitory in assay [7] (MIC).

With `Fc1ccc2[nH]cc(-c3cnc(-c4c[nH]c5ccc(F)cc45)cn3)c2c1` [formula (5), 2,5-bis(5-fluoro-1H-indole-3-yl)pyrazine], the MIC in assay [1], in [2], in assay [3], in [4], in assay [5] and in assay [6] was greater than 100 µM throughout. The minimal inhibitory concentration (MIC) in [7] is greater than 100 µM. In assay [8], the “activity against the tested strains” value is reported as “no activity”.

Take `c1ccc2c(-c3cnc(-c4c[nH]c5ccccc45)cn3)c[nH]c2c1` [formula (10), 2,5-bis(1H-indole-3-yl)pyrazine]: the MIC is greater than 100 µM in assay [1]; greater than 100 µM in [2]; 12.5 µM in assay [3]; greater than 100 µM in assay [4]; 25 µM in assay [5]; greater than 100 µM in [6]. In [7], the MIC is greater than 100 µM. For the same compound, the “effect against M. tuberculosis” value in assay [8] is “did not show any effect”.

As to `c1cnc2[nH]cc(-c3cnc(-c4c[nH]c5ncccc45)nc3)c2c1` [formula (13), 3,3'-(pyrimidine-2,5-diyl)bis(1H-pyrrolo[2,3-b]pyridine)], the MIC in assay [1] is greater than 100 µM; in [2], greater than 100 µM; in assay [3], 100 µM; in assay [4] it was greater than 100 µM; in assay [5] it was greater than 100 µM; in assay [6] it was greater than 100 µM. In addition, in assay [7], the MIC was greater than 100 µM.

Turning to `COc1ccc2[nH]cc(-c3cnc(-c4c[nH]c5ccc(OC)cc45)nc3)c2c1` [formula (14), 3,3'-(pyrimidine-2,5-diyl)bis(5-methoxy-1H-indole)], the MIC is 100 µM in assay [1]; 50 µM in assay [2]; 50 µM in assay [3]; 50 µM in assay [4]; 100 µM in [5]; greater than 100 µM in [6]. In assay [7], this compound registered an MIC of 50 µM.
